# pIC50: −log10 of the molar value.
# Target: recombinant CD73 (Homo sapiens (Human), UniProt P21589)
# Assay: Assay 1: Inhibition of the CD73 enzyme in vitro (0.5 nM CD73, 30 min room temperature, Malachite Green)
# Type: biochemical
# Details: 0.5 nM CD73, 30 minutes at room temperature
# Experimental: For measurements of soluble CD73 enzyme activity, recombinant CD73 was obtained from R&D Systems, Cat. No. 5795-EN-010. […] Reactions were allowed to proceed for 30 minutes at room temperature before the addition of 100 μL Malachite Green (Cell Signaling Technology, Cat. No. 12776). After 5 minutes at room temperature, absorbance at 630 nm was determined on a microplate spectrophotometer. The concentration of inorganic phosphate was determined using a phosphate standard curve.
# Chain of recombinant CD73 (P21589 27-547): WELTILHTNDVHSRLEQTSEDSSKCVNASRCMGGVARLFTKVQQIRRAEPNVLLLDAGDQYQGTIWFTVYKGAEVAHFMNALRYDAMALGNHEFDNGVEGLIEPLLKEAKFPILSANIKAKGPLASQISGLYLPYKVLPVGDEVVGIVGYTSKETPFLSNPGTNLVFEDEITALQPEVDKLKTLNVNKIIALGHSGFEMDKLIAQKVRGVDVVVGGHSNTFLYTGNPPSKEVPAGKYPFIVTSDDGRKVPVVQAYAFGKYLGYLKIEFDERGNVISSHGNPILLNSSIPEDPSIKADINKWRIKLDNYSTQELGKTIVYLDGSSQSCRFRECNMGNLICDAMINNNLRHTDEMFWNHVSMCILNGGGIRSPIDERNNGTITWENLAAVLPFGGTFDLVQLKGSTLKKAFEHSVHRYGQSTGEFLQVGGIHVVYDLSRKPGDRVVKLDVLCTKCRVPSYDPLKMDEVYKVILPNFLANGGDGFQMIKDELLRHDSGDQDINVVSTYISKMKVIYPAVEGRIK
row,pIC50,Compound
1,9.52,"C#C[C@@]1(O)[C@@H](COC(Cc2ccccc2)(C(=O)O)C(=O)O)O[C@@H](n2cnc3c(NC4CCCC4)nc(Cl)nc32)[C@@H]1O [Example 91, 2-benzyl-2-(((2R,3S,4R,5R)-5-(2-chloro-6-(cyclopentylamino)-9H-purin-9-yl)-3-ethynyl-3,4-dihydroxytetrahydrofuran-2-yl)methoxy)malonic acid]"
2,5.64,"C[C@@]1(O)[C@@H](CO[C@](Cc2ccc(-c3ccccc3)cc2)(C(=O)O)c2cscn2)O[C@@H](n2cnc3c(N)nc(Cl)nc32)[C@@H]1O (single isomer, unassigned) [Example 198]"
3,6.49,"C#C[C@@]1(O)[C@@H](COC(C(=O)O)c2cscn2)O[C@@H](n2cnc3c(N)nc(Cl)nc32)[C@@H]1O (stereo partly drawn) [Example 179, 2-(((2R,3S,4R,5R)-5-(6-amino-2-chloro-9H-purin-9-yl)-3-ethynyl-3,4-dihydroxytetrahydrofuran-2-yl)methoxy)-2-(thiazol-4-yl)acetic acid]"
4,8.70,"Nc1nc(Cl)nc2c1ncn2[C@@H]1O[C@H](COC(C(=O)O)C(=O)O)[C@](O)(C#Cc2ccnn2Cc2ccccc2)[C@H]1O [Example 29, 2-(((2R,3S,4R,5R)-5-(6-amino-2-chloro-9H-purin-9-yl)-3-((1-benzyl-1H-pyrazol-5-yl)ethynyl)-3,4-dihydroxytetrahydrofuran-2-yl)methoxy)malonic acid]"
5,6.48,"C#C[C@@]1(O)[C@@H](COC(C(=O)O)C(=O)N2CCCC2)O[C@@H](n2cnc3c(N)nc(Cl)nc32)[C@@H]1O (stereo partly drawn) [Example 113, 2-(((2R,3S,4R,5R)-5-(6-amino-2-chloro-9H-purin-9-yl)-3-ethynyl-3,4-dihydroxytetrahydrofuran-2-yl)methoxy)-3-oxo-3-(pyrrolidin-1-yl)propanoic acid]"
6,7.46,"CC[C@@]1(O)[C@@H](COC(C(=O)O)C(=O)O)O[C@@H](n2cnc3c(N)nc(Cl)nc32)[C@@H]1O [Example 55, 2-(((2R,3S,4R,5R)-5-(6-amino-2-chloro-9H-purin-9-yl)-3-ethyl-3,4-dihydroxytetrahydrofuran-2-yl)methoxy)malonic acid]"
7,8.52,"C#C[C@@]1(O)[C@@H](COC(Cc2cccc(Cl)c2)(C(=O)O)C(=O)O)O[C@@H](n2cnc3c(N)nc(Cl)nc32)[C@@H]1O [Example 51, 2-(((2R,3S,4R,5R)-5-(6-amino-2-chloro-9H-purin-9-yl)-3-ethynyl-3,4-dihydroxytetrahydrofuran-2-yl)methoxy)-2-(3-chlorobenzyl)malonic acid]"
8,6.69,"C[C@@]1(O)[C@@H](COC(Cc2ccc(-c3ccccc3C(=O)O)cc2)(C(=O)O)c2nnn[nH]2)O[C@@H](n2cnc3c(N)nc(Cl)nc32)[C@@H]1O (stereo partly drawn) [Example 201, 4′-(2-(((2R,3S,4R,5R)-5-(6-amino-2-chloro-9H-purin-9-yl)-3,4-dihydroxy-3-methyltetrahydrofuran-2-yl)methoxy)-2-carboxy-2-(1H-tetrazol-5-yl)ethyl)-[1,1′-biphenyl]-2-carboxylic acid]"
9,7.60,"C#C[C@@]1(O)[C@@H](CO[C@@](Cc2ccccc2)(C(=O)O)c2nnn[nH]2)O[C@@H](n2cnc3c(N)nc(Cl)nc32)[C@@H]1O [Example 192, (R)-2-(((2R,3S,4R,5R)-5-(6-amino-2-chloro-9H-purin-9-yl)-3-ethynyl-3,4-dihydroxytetrahydrofuran-2-yl)methoxy)-3-phenyl-2-(1H-tetrazol-5-yl)propanoic acid]"
10,9.10,"C#C[C@@]1(O)[C@@H](COC(Cc2ccccc2)(C(=O)O)C(=O)O)O[C@@H](n2cnc3c(NCC4CC4)nc(Cl)nc32)[C@@H]1O [Example 92, 2-benzyl-2-(((2R,3S,4R,5R)-5-(2-chloro-6-((cyclopropylmethyl)amino)-9H-purin-9-yl)-3-ethynyl-3,4-dihydroxytetrahydrofuran-2-yl)methoxy)malonic acid]"
11,5.09,"C#C[C@@]1(O)[C@@H](COC(C(N)=O)C(N)=O)O[C@@H](n2cnc3c(NC4CCCC4)nc(Cl)nc32)[C@@H]1O [Example 116, 2-(((2R,3S,4R,5R)-5-(2-chloro-6-(cyclopentylamino)-9H-purin-9-yl)-3-ethynyl-3,4-dihydroxytetrahydrofuran-2-yl)methoxy)malonamide]"
12,8.15,"C#CCC(OC[C@H]1O[C@@H](n2cnc3c(N)nc(Cl)nc32)[C@H](O)[C@@]1(O)C#C)(C(=O)O)C(=O)O [Example 25, 2-(((2R,3S,4R,5R)-5-(6-amino-2-chloro-9H-purin-9-yl)-3-ethynyl-3,4-dihydroxytetrahydrofuran-2-yl)methoxy)-2-(prop-2-yn-1-yl)malonic acid]"

# From patent publication US11078228B2, “Ectonucleotidase inhibitors and methods of use thereof” (Calithera Biosciences, Inc., priority 2018, dated 2021)
